{"source": "PubChem BioAssay AID1963853", "about": "(Molecular Pharmacology Branch, DTP, NCI, 2024);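 note: spheroids exposed to compounds for seven days before readout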", "system": "266295-075-R-J1-PDC spheroid viability", "assay": "Anticancer human tumor 266295-075-R-J1-PDC patient-derived head and neck squamous carcinoma cell line growth inhibition [POLQ]", "conditions": "spheroids with HUVEC and MSC; for IC50: curve of first compound; for viability, T/C: stronger effect = lower value", "how_it_was_run": "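PDC + HUVEC + MSC complex spheroids; POLQ inhibitors ± partner drugs; top conc. at/near clinical Cmax, else 10 microM (SN-38 1 microM), half-log dilutions; 37 degrees C, 5% CO2.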", "key": {"[1]": {"conditions": "second compound 0.0316 µM, first compound 0.0316 µM"}, "[2]": {"conditions": "second compound 0.0316 µM, first compound 0.1 µM"}, "[3]": {"conditions": "second compound 0.0316 µM, first compound 0.316 µM"}, "[4]": {"conditions": "second compound 0.0316 µM, first compound 1 µM"}, "[5]": {"conditions": "second compound 0.0316 µM, first compound 3.16 µM"}, "[6]": {"conditions": "second compound 0.0316 µM, first compound 10 µM"}, "[7]": {"conditions": "second compound 0.1 µM, first compound 0.0316 µM"}, "[8]": {"conditions": "second compound 0.1 µM, first compound 0.1 µM"}, "[9]": {"conditions": "second compound 0.1 µM, first compound 0.316 µM"}, "[10]": {"conditions": "second compound 0.1 µM, first compound 1 µM"}, "[11]": {"conditions": "second compound 0.1 µM, first compound 3.16 µM"}, "[12]": {"conditions": "second compound 0.1 µM, first compound 10 µM"}, "[13]": {"conditions": "second compound 0.316 µM, first compound 0.0316 µM"}, "[14]": {"conditions": "second compound 0.316 µM, first compound 0.1 µM"}, "[15]": {"conditions": "second compound 0.316 µM, first compound 0.316 µM"}, "[16]": {"conditions": "second compound 0.316 µM, first compound 1 µM"}, "[17]": {"conditions": "second compound 0.316 µM, first compound 3.16 µM"}, "[18]": {"conditions": "second compound 0.316 µM, first compound 10 µM"}, "[19]": {"conditions": "second compound 1 µM, first compound 0.0316 µM"}, "[20]": {"conditions": "second compound 1 µM, first compound 0.1 µM"}, "[21]": {"conditions": "second compound 1 µM, first compound 0.316 µM"}, "[22]": {"conditions": "second compound 1 µM, first compound 1 µM"}, "[23]": {"conditions": "second compound 1 µM, first compound 3.16 µM"}, "[24]": {"conditions": "second compound 1 µM, first compound 10 µM"}, "[25]": {"conditions": "second compound 3.16 µM, first compound 0.0316 µM"}, "[26]": {"conditions": "second compound 3.16 µM, first compound 0.1 µM"}, "[27]": {"conditions": "second compound 3.16 µM, first compound 0.316 µM"}, "[28]": {"conditions": "second compound 3.16 µM, first compound 1 µM"}, "[29]": {"conditions": "second compound 3.16 µM, first compound 3.16 µM"}, "[30]": {"conditions": "second compound 3.16 µM, first compound 10 µM"}, "[31]": {"conditions": "second compound 10 µM, first compound 0.0316 µM"}, "[32]": {"conditions": "second compound 10 µM, first compound 0.1 µM"}, "[33]": {"conditions": "second compound 10 µM, first compound 0.316 µM"}, "[34]": {"conditions": "second compound 10 µM, first compound 1 µM"}, "[35]": {"conditions": "second compound 10 µM, first compound 3.16 µM"}, "[36]": {"conditions": "second compound 10 µM, first compound 10 µM"}}, "data": [{"smiles": "CC1COCCN1c1cc(-c2ccnn2C)c2ccnc(-c3ccn[nH]3)c2n1", "note": "(centres undefined) + COC1C(OC(N)=O)C(O)C(Oc2ccc3c(O)c(NC(=O)c4ccc(O)c(CC=C(C)C)c4)c(=O)oc3c2C)OC1(C)C", "values": [{"measurement": "IC50", "setting": "second compound 0.0316 µM", "result": 4.35, "unit": "µM"}, {"measurement": "IC50", "setting": "second compound 0.1 µM", "result": 2.01, "unit": "µM"}, {"measurement": "IC50", "setting": "second compound 0.316 µM", "result": 1.91, "unit": "µM"}, {"measurement": "IC50", "setting": "second compound 1 µM", "result": 3.89, "unit": "µM"}, {"measurement": "IC50", "setting": "second compound 3.16 µM", "result": 4.51, "unit": "µM"}, {"measurement": "IC50", "setting": "second compound 10 µM", "result": 1.97, "unit": "µM"}, {"measurement": "viability, T/C", "setting": "[1]", "result": 91.2, "unit": "%"}, {"measurement": "viability, T/C", "setting": "[2]", "result": 84.7, "unit": "%"}, {"measurement": "viability, T/C", "setting": "[3]", "result": 71.2, "unit": "%"}, {"measurement": "viability, T/C", "setting": "[4]", "result": 63.3, "unit": "%"}, {"measurement": "viability, T/C", "setting": "[5]", "result": 54.3, "unit": "%"}, {"measurement": "viability, T/C", "setting": "[6]", "result": 42.1, "unit": "%"}, {"measurement": "viability, T/C", "setting": "[7]", "result": 91.7, "unit": "%"}, {"measurement": "viability, T/C", "setting": "[8]", "result": 92.2, "unit": "%"}, {"measurement": "viability, T/C", "setting": "[9]", "result": 65.8, "unit": "%"}, {"measurement": "viability, T/C", "setting": "[10]", "result": 58, "unit": "%"}, {"measurement": "viability, T/C", "setting": "[11]", "result": 48.4, "unit": "%"}, {"measurement": "viability, T/C", "setting": "[12]", "result": 41.6, "unit": "%"}, {"measurement": "viability, T/C", "setting": "[13]", "result": 89.9, "unit": "%"}, {"measurement": "viability, T/C", "setting": "[14]", "result": 90.6, "unit": "%"}, {"measurement": "viability, T/C", "setting": "[15]", "result": 63.7, "unit": "%"}, {"measurement": "viability, T/C", "setting": "[16]", "result": 61.3, "unit": "%"}, {"measurement": "viability, T/C", "setting": "[17]", "result": 43.6, "unit": "%"}, {"measurement": "viability, T/C", "setting": "[18]", "result": 38.7, "unit": "%"}, {"measurement": "viability, T/C", "setting": "[19]", "result": 110, "unit": "%"}, {"measurement": "viability, T/C", "setting": "[20]", "result": 91.2, "unit": "%"}, {"measurement": "viability, T/C", "setting": "[21]", "result": 79.1, "unit": "%"}, {"measurement": "viability, T/C", "setting": "[22]", "result": 62.5, "unit": "%"}, {"measurement": "viability, T/C", "setting": "[23]", "result": 53.3, "unit": "%"}, {"measurement": "viability, T/C", "setting": "[24]", "result": 41, "unit": "%"}, {"measurement": "viability, T/C", "setting": "[25]", "result": 98.2, "unit": "%"}, {"measurement": "viability, T/C", "setting": "[26]", "result": 82.8, "unit": "%"}, {"measurement": "viability, T/C", "setting": "[27]", "result": 77.2, "unit": "%"}, {"measurement": "viability, T/C", "setting": "[28]", "result": 63.9, "unit": "%"}, {"measurement": "viability, T/C", "setting": "[29]", "result": 53.9, "unit": "%"}, {"measurement": "viability, T/C", "setting": "[30]", "result": 41.9, "unit": "%"}, {"measurement": "viability, T/C", "setting": "[31]", "result": 87.6, "unit": "%"}, {"measurement": "viability, T/C", "setting": "[32]", "result": 94.7, "unit": "%"}, {"measurement": "viability, T/C", "setting": "[33]", "result": 75.7, "unit": "%"}, {"measurement": "viability, T/C", "setting": "[34]", "result": 57.1, "unit": "%"}, {"measurement": "viability, T/C", "setting": "[35]", "result": 47.8, "unit": "%"}, {"measurement": "viability, T/C", "setting": "[36]", "result": 38.1, "unit": "%"}]}, {"smiles": "CCc1cc2c(N3CCc4c(cc(Cn5ccnc5)cc4-c4cn(C)nc4C(F)(F)F)C3=O)cc(C)nc2c(OC)n1", "note": "+ Nc1ccc(C#CCN(C(=O)Cc2ncc(C(F)(F)F)cc2C(F)(F)F)c2ccc(F)cc2)nn1", "values": [{"measurement": "IC50", "setting": "second compound 0.0316 µM", "result": "> 10", "unit": "µM"}, {"measurement": "IC50", "setting": "second compound 0.1 µM", "result": "> 10", "unit": "µM"}, {"measurement": "IC50", "setting": "second compound 0.316 µM", "result": "> 10", "unit": "µM"}, {"measurement": "IC50", "setting": "second compound 1 µM", "result": "> 10", "unit": "µM"}, {"measurement": "IC50", "setting": "second compound 3.16 µM", "result": "> 10", "unit": "µM"}, {"measurement": "IC50", "setting": "second compound 10 µM", "result": "> 10", "unit": "µM"}, {"measurement": "viability, T/C", "setting": "[1]", "result": 103, "unit": "%"}, {"measurement": "viability, T/C", "setting": "[2]", "result": 96.2, "unit": "%"}, {"measurement": "viability, T/C", "setting": "[3]", "result": 127, "unit": "%"}, {"measurement": "viability, T/C", "setting": "[4]", "result": 141, "unit": "%"}, {"measurement": "viability, T/C", "setting": "[5]", "result": 122, "unit": "%"}, {"measurement": "viability, T/C", "setting": "[6]", "result": 149, "unit": "%"}, {"measurement": "viability, T/C", "setting": "[7]", "result": 112, "unit": "%"}, {"measurement": "viability, T/C", "setting": "[8]", "result": 113, "unit": "%"}, {"measurement": "viability, T/C", "setting": "[9]", "result": 105, "unit": "%"}, {"measurement": "viability, T/C", "setting": "[10]", "result": 141, "unit": "%"}, {"measurement": "viability, T/C", "setting": "[11]", "result": 163, "unit": "%"}, {"measurement": "viability, T/C", "setting": "[12]", "result": 137, "unit": "%"}, {"measurement": "viability, T/C", "setting": "[13]", "result": 102, "unit": "%"}, {"measurement": "viability, T/C", "setting": "[14]", "result": 105, "unit": "%"}, {"measurement": "viability, T/C", "setting": "[15]", "result": 91, "unit": "%"}, {"measurement": "viability, T/C", "setting": "[16]", "result": 144, "unit": "%"}, {"measurement": "viability, T/C", "setting": "[17]", "result": 129, "unit": "%"}, {"measurement": "viability, T/C", "setting": "[18]", "result": 152, "unit": "%"}, {"measurement": "viability, T/C", "setting": "[19]", "result": 106, "unit": "%"}, {"measurement": "viability, T/C", "setting": "[20]", "result": 94.2, "unit": "%"}, {"measurement": "viability, T/C", "setting": "[21]", "result": 96.7, "unit": "%"}, {"measurement": "viability, T/C", "setting": "[22]", "result": 136, "unit": "%"}, {"measurement": "viability, T/C", "setting": "[23]", "result": 123, "unit": "%"}, {"measurement": "viability, T/C", "setting": "[24]", "result": 133, "unit": "%"}, {"measurement": "viability, T/C", "setting": "[25]", "result": 95.3, "unit": "%"}, {"measurement": "viability, T/C", "setting": "[26]", "result": 109, "unit": "%"}, {"measurement": "viability, T/C", "setting": "[27]", "result": 130, "unit": "%"}, {"measurement": "viability, T/C", "setting": "[28]", "result": 126, "unit": "%"}, {"measurement": "viability, T/C", "setting": "[29]", "result": 118, "unit": "%"}, {"measurement": "viability, T/C", "setting": "[30]", "result": 120, "unit": "%"}, {"measurement": "viability, T/C", "setting": "[31]", "result": 106, "unit": "%"}, {"measurement": "viability, T/C", "setting": "[32]", "result": 93.9, "unit": "%"}, {"measurement": "viability, T/C", "setting": "[33]", "result": 106, "unit": "%"}, {"measurement": "viability, T/C", "setting": "[34]", "result": 115, "unit": "%"}, {"measurement": "viability, T/C", "setting": "[35]", "result": 127, "unit": "%"}, {"measurement": "viability, T/C", "setting": "[36]", "result": 139, "unit": "%"}]}]}
